The experiment deals with T1, haematopoietic prostaglandin D synthase (H-PGDS) (Homo sapiens, UniProt O60760).
T1 construct: Full length human H-PGDS cDNA (Invitrogen Ultimate ORF IOH13026) was amplified by PCR; 6-His (N); TEV protease cleavage site (N); made in house; host or cells: E. coli BL21 (DE3*)
Briefly: H-PGDS RapidFire high throughput mass spectrometry assay (conversion of PGH2 to PGD2). It counts as biochemical. The following applies: 10 nM H-PGDS, PGH2 formed in situ by COX-2 from arachidonic acid; four parameter curve fit; read-out: Potency Range (mean pIC50) (converted). On the procedure:
The H-PGDS RapidFire™ mass spectrometric assay monitors conversion of prostaglandin H2 (PGH2) to prostaglandin D2 (PGD2) by haematopoietic prostaglandin D synthase (H-PGDS). In the assay format described here, the substrate (PGH2) is formed in situ by the action of cyclooxygenase-2 on arachidonic acid. This first step is set up to be fast, and generates a burst of PGH2 at ˜10 μM. The PGH2 is then further converted to PGD2 by the H-PGDS enzyme. […] Plates are then read on the RapidFire™ high throughput solid phase extraction system (Agilent) which incorporates a solid phase extraction step coupled to a triple quadrupole mass spectrometer (AB SCIEX). Relative levels of PGD2 and PGF2α, which acts as a surrogate for substrate, are measured and a percent conversion calculated. Inhibitors are characterised as compounds which lower the conversion of PGH2 to PGD2.
Full length human H-PGDS cDNA (Invitrogen Ultimate ORF IOH13026) was amplified by PCR with the addition of a 5′ 6-His tag and TEV protease cleavage site. The PCR product was digested with NdeI and XhoI and ligated into pET22b+ (Merck Novagen®). Expression was carried out in E. coli strain BL21 (DE3*) using auto-induction Overnight Express™ Instant TB medium (Merck Novagen®) supplemented with 1% glycerol. The culture was first grown at 37° C. and the temperature was reduced to 25° C. when OD600 reached 2.0. Cells were harvested by centrifugation after a further 18 hours. 10 g of E. coli cell pellet was suspended to a total volume of 80 mL in lysis buffer (20 mM Tris-Cl pH 7.5, 300 mM NaCl, 20 mM imidazole, 5 mM β-mercaptoethanol, 10% glycerol). 1 mg/mL protease inhibitors (Protease Inhibitor Cocktail Set III, Merck Calbiochem®) and 1 mg/mL lysozyme were added to the cell suspension. The suspension was then sonicated for 5 min (UltraSonic Processor VCX 750, Cole-Parmer Instrument Co.) with a micro probe (50% amplitude, 10 sec on/off) and then centrifuged at 100,000 g for 90 minutes (at 4° C.). The supernatant was loaded onto a Ni-NTA HiTrap column (5 mL, GE Healthcare, pre-equilibrated in lysis buffer). The column was washed with 10 column volumes of lysis buffer and eluted with lysis buffer containing 500 mM imidazole. The pooled protein peak fractions were concentrated using a 10 kDa centrifugal filter at 3500 g and 4° C. (Amicon Ultra-15 centrifugal filter unit with Ultracel-10 membrane from Millipore). Further purification of the concentrated protein was carried out using gel filtration chromatography on a HiLoad 26/600 Superdex 75 preparative grade column (GE Healthcare Life Sciences) using 50 mM Tris pH 7.5, 50 mM NaCl, 1 mM dithiothreitol, 1 mM MgCl2. Fractions containing the protein were pooled, concentrated as described above, and stored at −80° C.
The full length human COX-2 gene (accession number L15326) was amplified by PCR to generate an EcoRI—HindIII fragment containing an in-frame FLAG tag. This was subcloned into pFastBac 1 (Invitrogen). The COX-2 FLAG plasmid was recombined into the baculovirus genome according to the BAC-to-BAC protocol described by Invitrogen. Transfection into Spodoptera frugiperda (Sf9) insect cells was performed using Cellfectin (Invitrogen), according to the manufacturer's protocol. Super Sf9 cells were cultured in EX420 media (SAFC Biosciences) to a density of approximately 1.5×10^6 cells/mL within a wave bioreactor. Recombinant virus was added at a Multiplicity of Infection (MOI) of 5 and the culture was allowed to continue for 3 days. Cells were harvested using a continuous feed centrifuge run at 2500 g at a rate of approximately 2 L/min with cooling. The resultant cell slurry was re-centrifuged in pots (2500 g, 20 min, 4° C.) and the cell paste was stored at −80° C. 342 g of cell paste was re-suspended to a final volume of 1600 mL in a buffer of 20 mM Tris-Cl pH 7.4, 150 mM NaCl, 0.1 mM EDTA, 1.3% w/v n-octyl-[…] containing 20 Complete EDTA-free Protease Inhibitor Cocktail tablets (Roche Applied Science). […]

The structures appear in SMILES notation.

T1 sequence (O60760 whole entry): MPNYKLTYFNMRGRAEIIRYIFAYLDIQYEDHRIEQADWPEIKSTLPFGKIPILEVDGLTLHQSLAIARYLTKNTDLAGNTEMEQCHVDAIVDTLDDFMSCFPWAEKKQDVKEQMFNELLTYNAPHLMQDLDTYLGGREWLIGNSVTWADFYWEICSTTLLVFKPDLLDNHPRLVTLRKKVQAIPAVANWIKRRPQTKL

On to `CC1CCN1c1ccc2cc(C(=O)N[C@H]3CC[C@H](C(C)(C)O)CC3)cnc2n1` (mixture of isomers) [Example 7, N-(trans-4-(2-Hydroxypropan-2-yl)cyclohexyl)-7-(2-methylazetidin-1-yl)-1,8-naphthyridine-3-carboxamide], for which the IC50 is 10 to 79.4 nM.

For the compound `CC1CCN1c1cc2ncc(C(=O)N[C@H]3CC[C@H](C(C)(C)O)CC3)cc2cn1` (mixture of isomers) [Example 11, N-(trans-4-(2-Hydroxypropan-2-yl)cyclohexyl)-7-(2-methylazetidin-1-yl)-1,6-naphthyridine-3-carboxamide], the IC50 was 10 to 79.4 nM.

On to `CC(C)(O)C1CC2(CC(NC(=O)c3cnc4cc(C5CC5)ncc4c3)C2)C1` (racemic) [Example 34, 7-Cyclopropyl-N-(6-(2-hydroxypropan-2-yl)spiro[3.3]heptan-2-yl)-1,6-naphthyridine-3-carboxamide], for which the IC50 was under 10 nM.

Take `CC(N[C@H]1CC[C@H](NC(=O)c2cnc3cc(C4CC4)ncc3c2)CC1)C(F)F` (mixture of isomers) [Example 39, 7-cyclopropyl-N-(trans-4-((1,1-difluoropropan-2-yl)amino)cyclohexyl)-1,6-naphthyridine-3-carboxamide]: the IC50 is 10 to 79.4 nM.

On to `CC(C)(O)C1CC2(CC(NC(=O)c3cnc4nc(C5CC5)ccc4c3)C2)C1` (racemic) [Example 49, 7-Cyclopropyl-N-(6-(2-hydroxypropan-2-yl)spiro[3.3]heptan-2-yl)-1,8-naphthyridine-3-carboxamide], for which the IC50 was 10 to 79.4 nM.

Consider `CC(N[C@H]1CC[C@H](NC(=O)c2cnc3nc(C4CC4)ccc3c2)CC1)C(F)F` (mixture of isomers) [Example 57, 7-Cyclopropyl-N-(trans-4-((1,1-difluoropropan-2-yl)amino)cyclohexyl)-1,8-naphthyridine-3-carboxamide], for which the IC50 is 10 to 79.4 nM.

As for `CC(C)(O)[C@H]1CC[C@H](NC(=O)c2cnc3ccncc3c2)CC1` [Example 1, N-(trans-4-(2-Hydroxypropan-2-yl)cyclohexyl)-1,6-naphthyridine-3-carboxamide], the IC50 was 1260 to 10000 nM.

`CC(C)(O)[C@H]1CC[C@H](NC(=O)c2cnc3ncccc3c2)CC1` [Example 2, N-(trans-4-(2-Hydroxypropan-2-yl)cyclohexyl)-1,8-naphthyridine-3-carboxamide]: the IC50 is 1260 to 10000 nM.

On to `CC(C)(O)[C@H]1CC[C@H](NC(=O)c2cnc3cc(N4CC(F)C4)ncc3c2)CC1` [Example 3, 7-(3-Fluoroazetidin-1-yl)-N-(trans-4-(2-hydroxypropan-2-yl)cyclohexyl)-1,6-naphthyridine-3-carboxamide], for which the IC50 was 10 to 79.4 nM.

`CC(C)(O)[C@H]1CC[C@H](NC(=O)c2cnc3cc(N4CCC4)ncc3c2)CC1` [Example 4, 7-(Azetidin-1-yl)-N-(trans-4-(2-hydroxypropan-2-yl)cyclohexyl)-1,6-naphthyridine-3-carboxamide]: the IC50 is under 10 nM.

With `CC(C)(O)[C@H]1CC[C@H](NC(=O)c2cnc3nc(N4CCC4)ccc3c2)CC1` [Example 5, 7-(Azetidin-1-yl)-N-(trans-4-(2-hydroxypropan-2-yl)cyclohexyl)-1,8-naphthyridine-3-carboxamide], the IC50 was under 10 nM.

As to `CC(C)(O)[C@H]1CC[C@H](NC(=O)c2cnc3nc(N4CC(F)C4)ccc3c2)CC1` [Example 6, 7-(3-Fluoroazetidin-1-yl)-N-(trans-4-(2-hydroxypropan-2-yl)cyclohexyl)-1,8-naphthyridine-3-carboxamide], the IC50 is 10 to 79.4 nM.

Turning to `C[C@@H]1CCN1c1ccc2cc(C(=O)N[C@H]3CC[C@H](C(C)(C)O)CC3)cnc2n1` [Example 8, N-(trans-4-(2-Hydroxypropan-2-yl)cyclohexyl)-7-((R)-2-methylazetidin-1-yl)-1,8-naphthyridine-3-carboxamide], the IC50 was 100 to 1000 nM.

As for `C[C@H]1CCN1c1ccc2cc(C(=O)N[C@H]3CC[C@H](C(C)(C)O)CC3)cnc2n1` [Example 9, N-(trans-4-(2-Hydroxypropan-2-yl)cyclohexyl)-7-((S)-2-methylazetidin-1-yl)-1,8-naphthyridine-3-carboxamide], the IC50 was under 10 nM.

Take `CC(C)(O)[C@H]1CC[C@H](NC(=O)c2cnc3cc(C4CC4)ncc3c2)CC1` [Example 10, 7-Cyclopropyl-N-((trans)-4-(2-hydroxypropan-2-yl)cyclohexyl)-1,6-naphthyridine-3-carboxamide]: the IC50 is 10 to 79.4 nM.

`C[C@@H]1CCN1c1cc2ncc(C(=O)N[C@H]3CC[C@H](C(C)(C)O)CC3)cc2cn1` [Example 12, N-(trans-4-(2-Hydroxypropan-2-yl)cyclohexyl)-7-((R)-2-methylazetidin-1-yl)-1,6-naphthyridine-3-carboxamide]: the IC50 is 100 to 1000 nM.

Regarding `C[C@H]1CCN1c1cc2ncc(C(=O)N[C@H]3CC[C@H](C(C)(C)O)CC3)cc2cn1` [Example 13, N-(trans-4-(2-Hydroxypropan-2-yl)cyclohexyl)-7-((S)-2-methylazetidin-1-yl)-1,6-naphthyridine-3-carboxamide], the IC50 was under 10 nM.

For `CC(C)(O)[C@H]1CC[C@H](NC(=O)c2cnc3cc(NC4CC4)ncc3c2)CC1` [Example 14, 7-(Cyclopropylamino)-N-(trans-4-(2-hydroxypropan-2-yl)cyclohexyl)-1,6-naphthyridine-3-carboxamide], the IC50 is 10 to 79.4 nM.

Regarding `C[C@]1(O)C[C@@H](NC(=O)c2cnc3cc(N4CCC4)ncc3c2)C1` [Example 15, 7-(Azetidin-1-yl)-N-((1s,3s)-3-hydroxy-3-methylcyclobutyl)-1,6-naphthyridine-3-carboxamide], the IC50 was 10 to 79.4 nM.

`CC(C)(O)[C@H]1CC[C@H](NC(=O)c2cnc3nc(NCC(F)F)ccc3c2)CC1` [Example 16, 7-((2,2-Difluoroethyl)amino)-N-(trans-4-(2-hydroxypropan-2-yl)cyclohexyl)-1,8-naphthyridine-3-carboxamide]: the IC50 is 100 to 1000 nM.

`CC(C)(O)[C@H]1CC[C@H](NC(=O)c2cnc3nc(NCC(F)(F)F)ccc3c2)CC1` [Example 17, N-(trans-4-(2-Hydroxypropan-2-yl)cyclohexyl)-7-((2,2,2-trifluoroethyl)amino)-1,8-naphthyridine-3-carboxamide]: the IC50 is 100 to 1000 nM.

Take `C[C@]1(O)C[C@@H](NC(=O)c2cnc3nc(N4CCC4)ccc3c2)C1` [Example 18, 7-(Azetidin-1-yl)-N-((1s,3s)-3-hydroxy-3-methylcyclobutyl)-1,8-naphthyridine-3-carboxamide]: the IC50 is 100 to 1000 nM.

Take `O=C(N[C@H]1CCNC1=O)c1cnc2nc(N3CCC3)ccc2c1` [Example 19, (S)-7-(Azetidin-1-yl)-N-(2-oxopyrrolidin-3-yl)-1,8-naphthyridine-3-carboxamide]: the IC50 is 10 to 79.4 nM.

As to `O=C(N[C@H]1CCNC1=O)c1cnc2cc(N3CCC3)ncc2c1` [Example 20, (S)-7-(Azetidin-1-yl)-N-(2-oxopyrrolidin-3-yl)-1,6-naphthyridine-3-carboxamide], the IC50 was 10 to 79.4 nM.

Take `C[C@H]1CCN1c1cc2ncc(C(=O)N[C@H]3CCNC3=O)cc2cn1` [Example 22, 7-((S)-2-Methylazetidin-1-yl)-N—((S)-2-oxopyrrolidin-3-yl)-1,6-naphthyridine-3-carboxamide]: the IC50 was 10 to 79.4 nM.
